In patent US20220339143A1, “TAK-925 FOR USE IN TREATING NARCOLEPSY” (Takeda Pharmaceutical Company Limited, priority 2019, published 2022):
Where two headings read alike, the source gives them in different places.

Test: Single dose PK in healthy subjects (Cohorts 1, 2, S1 and S2), plasma
Format: in vivo, human
Settings: human, plasma, intravenous
Method: This study investigates (i) the safety and tolerability of Compound A (methyl (2R,3S)-3-((methylsulfonyl)amino)-2-(((cis-4-phenylcyclohexyl)oxy)methyl)piperidine-1-carboxylate) when a single dose given as a 9 hour continuous IV infusion is administered to healthy adults, healthy elderly subjects and patients with narcolepsy type 1 (NT1); (ii) the pharmacokinetics of Compound A when a single dose given as a 9 hour continuous IV infusion is administered to healthy adults, healthy elderly subjects and patients with narcolepsy type 1; and (iii) the pharmacodynamics (PD) effects of Compound A, primarily by evaluation of the sleep latency on MWT when a single dose given as a 9 hour continuous IV infusion is administered to patients with narcolepsy type 1.
Pharmacokinetics: Concentrations of Compound A in plasma, and CSF, and pharmacokinetics parameters.
On average, the time to reach the plateau appeared to be approximately 3 to 4 hours after the start of infusion. […] After switching off the IV infusion, Compound A plasma concentrations declined rapidly and in a biphasic manner with a mean terminal disposition phase t1/2z ranging approximately from 3.4 to 5.1 hours across all doses. […] Table 5 provides a summary of plasma concentrations of Compound A after a single IV infusion in healthy subjects. Table 6 provides a summary of pharmacokinetic parameters of Compound A after a single IV infusion in healthy subjects.

[1] = 14 mg, read-out: Plasma concentration, Maximum
[2] = 14 mg, read-out: Plasma concentration, Mean
[3] = 14 mg, read-out: Plasma concentration, Median
[4] = 14 mg, read-out: Plasma concentration, Minimum
[5] = 14 mg, read-out: Plasma concentration, Q1
[6] = 14 mg, read-out: Plasma concentration, Q3
[7] = 28 mg, read-out: Plasma concentration, Maximum
[8] = 28 mg, read-out: Plasma concentration, Mean
[9] = 28 mg, read-out: Plasma concentration, Median
[10] = 28 mg, read-out: Plasma concentration, Minimum
[11] = 28 mg, read-out: Plasma concentration, Q1
[12] = 28 mg, read-out: Plasma concentration, Q3

COC(=O)N1CCC[C@H](NS(C)(=O)=O)[C@@H]1CO[C@H]1CC[C@@H](c2ccccc2)CC1 [Compound A, methyl (2R,3S)-3-((methylsulfonyl)amino)-2-(((cis-4-phenylcyclohexyl)oxy)methyl)piperidine-1-carboxylate]
concentration at 3 hr (7 mg, 3 hr, read-out: Plasma concentration, Q1): 15.1 ng/mL
concentration at 3 h (7 mg, 3 hr, read-out: Plasma concentration, Q3): 18.8 ng/mL
concentration at 4 h (7 mg, 4 hr, read-out: Plasma concentration, Maximum): 20.6 ng/mL
concentration at 4 h (7 mg, 4 hr, read-out: Plasma concentration, Mean): 15.9 ng/mL
concentration at 4 h (7 mg, 4 hr, read-out: Plasma concentration, Median): 15.5 ng/mL
concentration at 4 h (7 mg, 4 hr, read-out: Plasma concentration, Minimum): 11.1 ng/mL
concentration at 4 hr (7 mg, 4 hr, read-out: Plasma concentration, Q1): 15.2 ng/mL
concentration at 4 h (7 mg, 4 hr, read-out: Plasma concentration, Q3): 17.6 ng/mL
concentration at 6 h (7 mg, 6 hr, read-out: Plasma concentration, Maximum): 15.9 ng/mL
concentration at 6 h (7 mg, 6 hr, read-out: Plasma concentration, Mean): 12.2 ng/mL
concentration at 6 h (7 mg, 6 hr, read-out: Plasma concentration, Median): 12.4 ng/mL
concentration at 6 h (7 mg, 6 hr, read-out: Plasma concentration, Minimum): 8.82 ng/mL
concentration at 6 hr (7 mg, 6 hr, read-out: Plasma concentration, Q1): 11.4 ng/mL
concentration at 6 h (7 mg, 6 hr, read-out: Plasma concentration, Q3): 12.5 ng/mL
concentration at 8 h (7 mg, 8 hr, read-out: Plasma concentration, Maximum): 16.1 ng/mL
concentration at 8 h (7 mg, 8 hr, read-out: Plasma concentration, Mean): 13 ng/mL
concentration at 8 h (7 mg, 8 hr, read-out: Plasma concentration, Median): 13.1 ng/mL
concentration at 8 h (7 mg, 8 hr, read-out: Plasma concentration, Minimum): 9.5 ng/mL
concentration at 8 hr (7 mg, 8 hr, read-out: Plasma concentration, Q1): 12.8 ng/mL
concentration at 8 h (7 mg, 8 hr, read-out: Plasma concentration, Q3): 13.4 ng/mL
concentration at 9 h (7 mg, 9 hr, read-out: Plasma concentration, Maximum): 15.2 ng/mL
concentration at 9 h (7 mg, 9 hr, read-out: Plasma concentration, Mean): 13.5 ng/mL
concentration at 9 h (7 mg, 9 hr, read-out: Plasma concentration, Median): 13.9 ng/mL
concentration at 9 h (7 mg, 9 hr, read-out: Plasma concentration, Minimum): 10.2 ng/mL
concentration at 9 hr (7 mg, 9 hr, read-out: Plasma concentration, Q1): 13.2 ng/mL
concentration at 9 h (7 mg, 9 hr, read-out: Plasma concentration, Q3): 15 ng/mL
concentration at 0.5 h [1]: 27.2 ng/mL
concentration at 0.5 h [2]: 22.5 ng/mL
concentration at 0.5 h [3]: 22.1 ng/mL
concentration at 0.5 h [4]: 18 ng/mL
concentration at 0.5 h [5]: 21.7 ng/mL
concentration at 0.5 h [6]: 23.9 ng/mL
concentration at 1 h [1]: 32.1 ng/mL
concentration at 1 h [2]: 26.6 ng/mL
concentration at 1 h [3]: 26.9 ng/mL
concentration at 1 h [4]: 21.8 ng/mL
concentration at 1 h [5]: 22.6 ng/mL
concentration at 1 h [6]: 29.7 ng/mL
concentration at 1.5 h [1]: 36.1 ng/mL
concentration at 1.5 h [2]: 30.4 ng/mL
concentration at 1.5 h [3]: 29 ng/mL
concentration at 1.5 h [4]: 27.4 ng/mL
concentration at 1.5 h [5]: 27.6 ng/mL
concentration at 1.5 h [6]: 33.6 ng/mL
concentration at 2 h (14 mg, 2 hr, read-out: Plasma concentration, Maximum): 37.8 ng/mL
concentration at 2 h (14 mg, 2 hr, read-out: Plasma concentration, Mean): 32.9 ng/mL
concentration at 2 h (14 mg, 2 hr, read-out: Plasma concentration, Median): 32 ng/mL
concentration at 2 h (14 mg, 2 hr, read-out: Plasma concentration, Minimum): 29.6 ng/mL
concentration at 2 h (14 mg, 2 hr, read-out: Plasma concentration, Q1): 30 ng/mL
concentration at 2 h (14 mg, 2 hr, read-out: Plasma concentration, Q3): 35.8 ng/mL
concentration at 3 h (14 mg, 3 hr, read-out: Plasma concentration, Maximum): 43.5 ng/mL
concentration at 3 h (14 mg, 3 hr, read-out: Plasma concentration, Mean): 35.8 ng/mL
concentration at 3 h (14 mg, 3 hr, read-out: Plasma concentration, Median): 34.3 ng/mL
concentration at 3 h (14 mg, 3 hr, read-out: Plasma concentration, Minimum): 31.8 ng/mL
concentration at 3 h (14 mg, 3 hr, read-out: Plasma concentration, Q1): 32.1 ng/mL
concentration at 3 h (14 mg, 3 hr, read-out: Plasma concentration, Q3): 39 ng/mL
concentration at 4 h (14 mg, 4 hr, read-out: Plasma concentration, Maximum): 40.4 ng/mL
concentration at 4 h (14 mg, 4 hr, read-out: Plasma concentration, Mean): 36.4 ng/mL
concentration at 4 h (14 mg, 4 hr, read-out: Plasma concentration, Median): 37 ng/mL
concentration at 4 h (14 mg, 4 hr, read-out: Plasma concentration, Minimum): 31 ng/mL
concentration at 4 h (14 mg, 4 hr, read-out: Plasma concentration, Q1): 33 ng/mL
concentration at 4 h (14 mg, 4 hr, read-out: Plasma concentration, Q3): 40 ng/mL
concentration at 6 h (14 mg, 6 hr, read-out: Plasma concentration, Maximum): 35.2 ng/mL
concentration at 6 h (14 mg, 6 hr, read-out: Plasma concentration, Mean): 29.3 ng/mL
concentration at 6 h (14 mg, 6 hr, read-out: Plasma concentration, Median): 29.7 ng/mL
concentration at 6 h (14 mg, 6 hr, read-out: Plasma concentration, Minimum): 23.1 ng/mL
concentration at 6 h (14 mg, 6 hr, read-out: Plasma concentration, Q1): 23.9 ng/mL
concentration at 6 h (14 mg, 6 hr, read-out: Plasma concentration, Q3): 34.4 ng/mL
concentration at 8 h (14 mg, 8 hr, read-out: Plasma concentration, Maximum): 34.4 ng/mL
concentration at 8 h (14 mg, 8 hr, read-out: Plasma concentration, Mean): 28.9 ng/mL
concentration at 8 h (14 mg, 8 hr, read-out: Plasma concentration, Median): 29.9 ng/mL
concentration at 8 h (14 mg, 8 hr, read-out: Plasma concentration, Minimum): 22.6 ng/mL
concentration at 8 h (14 mg, 8 hr, read-out: Plasma concentration, Q1): 24.6 ng/mL
concentration at 8 h (14 mg, 8 hr, read-out: Plasma concentration, Q3): 32.3 ng/mL
concentration at 9 h (14 mg, 9 hr, read-out: Plasma concentration, Maximum): 34.2 ng/mL
concentration at 9 h (14 mg, 9 hr, read-out: Plasma concentration, Mean): 30.1 ng/mL
concentration at 9 h (14 mg, 9 hr, read-out: Plasma concentration, Median): 30.8 ng/mL
concentration at 9 h (14 mg, 9 hr, read-out: Plasma concentration, Minimum): 22.8 ng/mL
concentration at 9 h (14 mg, 9 hr, read-out: Plasma concentration, Q1): 28.4 ng/mL
concentration at 9 h (14 mg, 9 hr, read-out: Plasma concentration, Q3): 33.5 ng/mL
concentration at 0.5 h [7]: 48.7 ng/mL
concentration at 0.5 hr [8]: 34.4 ng/mL
concentration at 0.5 hr [9]: 32 ng/mL
concentration at 0.5 hr [10]: 19.1 ng/mL
concentration at 0.5 hr [11]: 29.6 ng/mL
concentration at 0.5 h [12]: 42.6 ng/mL
concentration at 1 h [7]: 51.8 ng/mL
concentration at 1 hr [8]: 37.9 ng/mL
concentration at 1 hr [9]: 36.6 ng/mL
concentration at 1 hr [10]: 21.7 ng/mL
concentration at 1 hr [11]: 36.5 ng/mL
concentration at 1 h [12]: 42.8 ng/mL
concentration at 1.5 h [7]: 55.9 ng/mL
concentration at 1.5 hr [8]: 44.9 ng/mL
concentration at 1.5 h [9]: 47.1 ng/mL
concentration at 1.5 hr [10]: 27.2 ng/mL
concentration at 1.5 hr [11]: 44.4 ng/mL
concentration at 1.5 h [12]: 49.9 ng/mL
concentration at 2 h (28 mg, 2 hr, read-out: Plasma concentration, Maximum): 58.4 ng/mL
concentration at 2 hr (28 mg, 2 hr, read-out: Plasma concentration, Mean): 50.1 ng/mL
concentration at 2 h (28 mg, 2 hr, read-out: Plasma concentration, Median): 54.9 ng/mL
